{"source": "patent US8541434B2", "about": "“Ethynyl-substituted pyridine and pyrimidine derivatives and their use in treating viral infections” (Merck Sharp & Dohme Corp., priority 2008, dated 2013)", "system": "HCV replicon cells", "assay": "Cell-based HCV replicon assay (replicon RNA level by real time PCR, Taqman)", "settings": "Hepatitis C virus, 72 h, harvested on day 3, EC90 = concentration necessary to achieve ΔCT=3.2 over the baseline, read-out: EC90 Range", "procedure": "Assays Cell-Based HCV Replicon Assay\nTo measure cell-based anti-HCV activity of the compounds of the present invention, replicon cells were seeded at 5000 cells/well in 96-well collagen I-coated Nunc plates in the presence of the compound of the invention. […] The final concentration of DMSO was 0.5%, fetal bovine serum was 10%, in the assay media. Cells were harvested on day 3 by the addition of 1× cell lysis buffer (Ambion cat #8721). The replicon RNA level was measured using real time PCR (Taqman assay). The amplicon was located in 5B. […] GAPDH RNA was used as endogenous control and was amplified in the same reaction as NS5B (multiplex PCR) using primers and VIC-labeled probe recommended by the manufacturer (PE Applied Biosystem). The real-time RT-PCR reactions were run on ABI PRISM 7900HT Sequence Detection System using the following program: 48° C. for 30 min, 95° C. for 10 min, 40 cycles of 95° C. for 15 sec, 60° C. for 1 min. The ACT values (CT5B-CTGAPDH) were plotted against the concentration of test compound and fitted to the sigmoid dose-response model using GraphPad PRISM software. EC50 was defined as the concentration of inhibitor necessary to achieve ΔCT=1 over the projected baseline; EC90 the concentration necessary to achieve ΔCT=3.2 over the baseline. Alternatively, to quantitate the absolute amount of replicon RNA, a standard curve was established by including serially diluted T7 transcripts of replicon RNA in the Taqman assay. All Taqman reagents were from PE Applied Biosystems. Such an assay procedure was described in detail in e.g. Malcolm et al., Antimicrobial Agents and Chemotherapy 50: 1013-1020 (2006).", "data": [{"smiles": "COCCNc1nc(Cl)c(C#Cc2ccc(OCC(F)(F)F)nc2C)c(N[C@@H]2C[C@H](CO)[C@@H](O)[C@H]2O)n1", "note": "[Compound 69]", "values": [{"measurement": "EC90", "result": "500 to 5000", "unit": "nM"}]}, {"smiles": "CSc1ccc(C#Cc2c(Cl)nc(N)nc2N[C@@H]2C[C@H](CO)[C@@H](O)[C@H]2O)c(C)n1", "note": "[Compound 64]", "values": [{"measurement": "EC90", "result": "≤ 500", "unit": "nM"}]}, {"smiles": "Nc1nc(Cl)c(C#Cc2ccc(-c3ccccc3)cc2)c(N[C@@H]2C[C@H](CO)[C@@H](O)[C@H]2O)n1", "note": "[Compound 44]", "values": [{"measurement": "EC90", "result": "500 to 5000", "unit": "nM"}]}, {"smiles": "Nc1nc(Cl)c(C#Cc2ccc(F)nc2)c(N[C@@H]2C[C@H](CO)[C@@H](O)[C@H]2O)n1", "note": "[Compound 8]", "values": [{"measurement": "EC90", "result": "500 to 5000", "unit": "nM"}]}, {"smiles": "COc1ccc(C#Cc2c(C)nc(NCc3c(OC)cccc3OC)nc2N[C@@H]2C[C@H](CO)[C@@H](O)[C@H]2O)cn1", "note": "[Compound 93]", "values": [{"measurement": "EC90", "result": "≤ 500", "unit": "nM"}]}, {"smiles": "COCCNc1nc(C)c(C#Cc2ccc(OC)nc2C)c(N[C@@H]2C[C@H](CO)[C@@H](O)[C@H]2O)n1", "note": "[Compound 82]", "values": [{"measurement": "EC90", "result": "≤ 500", "unit": "nM"}]}, {"smiles": "COc1ccc(C#Cc2c(Cl)nc(NCC(F)(F)F)nc2N[C@@H]2C[C@H](CO)[C@@H](O)[C@H]2O)cn1", "note": "[Compound 76]", "values": [{"measurement": "EC90", "result": "≤ 500", "unit": "nM"}]}, {"smiles": "Nc1nc(Cl)c(C#Cc2ccc(C3CCCCN3)s2)c(N[C@@H]2C[C@H](CO)[C@@H](O)[C@H]2O)n1", "note": "(stereo partly shown) [Compound 31]", "values": [{"measurement": "EC90", "result": "≤ 500", "unit": "nM"}]}, {"smiles": "COC(=O)c1nc(N)sc1C#Cc1c(Cl)nc(N)nc1N[C@@H]1C[C@H](CO)[C@@H](O)[C@H]1O", "note": "[Compound 32]", "values": [{"measurement": "EC90", "result": "≤ 500", "unit": "nM"}]}, {"smiles": "CNc1nc(Cl)c(C#Cc2ccc(SC)nc2C)c(N[C@@H]2C[C@H](CO)[C@@H](O)[C@H]2O)n1", "note": "[Compound 66]", "values": [{"measurement": "EC90", "result": "≤ 500", "unit": "nM"}]}, {"smiles": "Cc1ccc(C#Cc2c(Cl)nc(N)nc2N[C@@H]2C[C@H](CO)[C@@H](O)[C@H]2O)cn1", "note": "[Compound 5]", "values": [{"measurement": "EC90", "result": "500 to 5000", "unit": "nM"}]}, {"smiles": "COc1ccc(C#Cc2c(C)nc(NCCCO)nc2N[C@@H]2C[C@H](CO)[C@H]3OC(C)(C)O[C@H]32)cn1", "note": "[Compound 83]", "values": [{"measurement": "EC90", "result": "500 to 5000", "unit": "nM"}]}, {"smiles": "Nc1nc(Cl)c(C#Cc2ccc(-c3ccno3)s2)c(N[C@@H]2C[C@H](CO)[C@@H](O)[C@H]2O)n1", "note": "[Compound 43]", "values": [{"measurement": "EC90", "result": "500 to 5000", "unit": "nM"}]}, {"smiles": "Cc1ccsc1C#Cc1c(Cl)nc(N)nc1N[C@@H]1C[C@H](CO)[C@@H](O)[C@H]1O", "note": "[Compound 7]", "values": [{"measurement": "EC90", "result": "500 to 5000", "unit": "nM"}]}, {"smiles": "COc1ccc(C#Cc2c(Cl)nc(N)nc2N[C@@H]2C[C@H](CO)[C@@H](O)[C@H]2O)c(C)c1", "note": "[Compound 29]", "values": [{"measurement": "EC90", "result": "500 to 5000", "unit": "nM"}]}, {"smiles": "CCOc1ccc(C#Cc2c(Cl)nc(N)nc2N[C@@H]2C[C@H](CO)[C@@H](O)[C@H]2O)cn1", "note": "[Compound 21]", "values": [{"measurement": "EC90", "result": "≤ 500", "unit": "nM"}]}, {"smiles": "COc1ccc(C#Cc2c(Cl)nc(N(C)C)nc2N[C@@H]2C[C@H](CO)[C@@H](O)[C@H]2O)cn1", "note": "[Compound 24]", "values": [{"measurement": "EC90", "result": "> 5000", "unit": "nM"}]}, {"smiles": "Nc1nc(Cl)c(C#Cc2cncs2)c(N[C@@H]2C[C@H](CO)[C@@H](O)[C@H]2O)n1", "note": "[Compound 37]", "values": [{"measurement": "EC90", "result": "500 to 5000", "unit": "nM"}]}, {"smiles": "Nc1nc(Cl)c(C#Cc2ccc(Cl)nc2)c(N[C@@H]2C[C@H](CO)[C@@H](O)[C@H]2O)n1", "note": "[Compound 9]", "values": [{"measurement": "EC90", "result": "> 5000", "unit": "nM"}]}, {"smiles": "CCOc1ccc(C#Cc2c(Cl)nc(NCC(F)(F)F)nc2N[C@@H]2C[C@H](CO)[C@@H](O)[C@H]2O)c(C)n1", "note": "[Compound 72]", "values": [{"measurement": "EC90", "result": "≤ 500", "unit": "nM"}]}, {"smiles": "Nc1nc(Cl)c(C#Cc2cncnc2)c(N[C@@H]2C[C@H](CO)[C@@H](O)[C@H]2O)n1", "note": "[Compound 45]", "values": [{"measurement": "EC90", "result": "500 to 5000", "unit": "nM"}]}, {"smiles": "COc1ncccc1C#Cc1c(Cl)nc(N)nc1N[C@@H]1C[C@H](CO)[C@@H](O)[C@H]1O", "note": "[Compound 12]", "values": [{"measurement": "EC90", "result": "500 to 5000", "unit": "nM"}]}, {"smiles": "CCOc1ccc(C#Cc2c(C)nc(NCCOC)nc2N[C@@H]2C[C@H](CO)[C@@H](O)[C@H]2O)cn1", "note": "[Compound 81]", "values": [{"measurement": "EC90", "result": "≤ 500", "unit": "nM"}]}, {"smiles": "CCc1nc(C)ccc1C#Cc1c(Cl)nc(N)nc1N[C@@H]1C[C@H](CO)[C@@H](O)[C@H]1O", "note": "[Compound 17]", "values": [{"measurement": "EC90", "result": "500 to 5000", "unit": "nM"}]}, {"smiles": "Cn1cncc1C#Cc1c(Cl)nc(N)nc1N[C@@H]1C[C@H](CO)[C@@H](O)[C@H]1O", "note": "[Compound 30]", "values": [{"measurement": "EC90", "result": "> 5000", "unit": "nM"}]}]}
